The numbers were not newly measured in patent publication US6403120B1 (Wyeth, priority 1996, dated 2002), which cites them from elsewhere.

The conditions of this series: plural daily dosing regimen.

As for `COc1ccc(C(CN(C)C)C2(O)CCCCC2)cc1.Cl` (centres unmarked) [venlafaxine hydrochloride, 1-[2-(dimethylamino)-1-(4methoxyphenyl)ethyl]cyclohexanol hydrochloride], the patients experiencing nausea result is “about forty five” and the patients with vomiting entry is reported as “about seventeen”.
